Here are results for 29 molecules from ChEMBL document CHEMBL1130637, “Pyrrolnitrin and related pyrroles endowed with antibacterial activities against Mycobacterium tuberculosis” (1998).

Values after ≈ are worked out from the molar mass of the structure shown. Bounds are passed on as bounds.

Experiment [1] concerns Mycobacterium avium. The experiment is described as follows: Antimycobacterial activity against Mycobacterium avium CIP 103317. The class given is functional.
Experiment [2] deals with Mycobacterium tuberculosis. Kind of experiment: Antimycobacterial activity against Mycobacterium tuberculosis CIP 103471. The class given is functional.
Experiment [3] relates to Vero. The experiment is described as follows: In vitro cytotoxicity against VERO cells. Type of experiment: functional, Chlorocebus sabaeus.
For experiment [4], the system named is Mycobacterium marinum. The experiment is described as follows: Antimycobacterial activity against Mycobacterium marinum CIP 6423. Type of experiment: functional.
Experiment [5] concerns Mycobacterium gordonae. Kind of experiment: Antimycobacterial activity against Mycobacterium gordonae CIP 6427. The class given is functional.
For experiment [6], the system named is Mycolicibacterium smegmatis. Kind of experiment: Antibacterial activity against Mycobacterium smegmatis CIP 103599. Type of experiment: functional.
Experiment [7] has as its system Vero. Kind of experiment: Compound was tested for cytotoxicity against VERO cells. Type of experiment: functional, Chlorocebus sabaeus.
In experiment [8] the test system is Mycobacterium tuberculosis. The experiment is described as follows: Compound was tested for anti-mycobacterial activity against Mycobacterium tuberculosis CIP 103471. The class given is functional.
Experiment [9] concerns Mycobacterium marinum. Kind of experiment: Compound was tested for anti-mycobacterial activity against Mycobacterium marinum CIP 6423. The class given is functional.
In experiment [10] the test system is Mycobacterium avium. The experiment is described as follows: Compound was tested for anti-mycobacterial activity against Mycobacterium avium CIP 103317. The class given is functional.
Experiment [11] has as its system Mycobacterium gordonae. Kind of experiment: Compound was tested for anti-mycobacterial activity against Mycobacterium gordonae CIP 6427. Type of experiment: functional.

One may read the MIC as the lowest concentration found to suppress growth. Regarding `CCOC(=O)c1cn(Cc2ccc(F)cc2)cc1-c1ccccc1`, the MIC against Mycobacterium avium [1] is 16 µg/mL (≈ 49.5 µM); in experiment [2] it was greater than 16 µg/mL; in the experiment on Mycobacterium marinum [4] it was greater than 16 µg/mL; with Mycobacterium gordonae [5], greater than 16 µg/mL; in experiment [6], greater than 16 µg/mL. This molecule also gave an MTD50 in the experiment with Vero [3] of 4 µg/mL.
Consider `Cn1cc(-c2ccc(Cl)cc2Cl)c([N+](=O)[O-])c1`, for which the MIC (in the experiment with Mycobacterium avium [1]; in experiment [2]; against Mycobacterium marinum [4]; with Mycobacterium gordonae [5]; in experiment [6]) was greater than 16 µg/mL throughout.
`O=[N+]([O-])c1c[nH]cc1-c1cc(Cl)cc(Cl)c1`: the MIC was 16 µg/mL (≈ 62.2 µM) in the experiment on Mycobacterium avium [1]; 8 µg/mL (≈ 31.1 µM) in experiment [2]; greater than 16 µg/mL against Mycobacterium marinum [4]; greater than 16 µg/mL in the experiment with Mycobacterium gordonae [5]; greater than 16 µg/mL in experiment [6]. Also, the MTD50 in the experiment on Vero [3] is 1 µg/mL.
For `COc1ccc(-c2c[nH]cc2[N+](=O)[O-])c(Cl)c1`, the minimum inhibitory concentration (MIC) against Mycobacterium avium [1] is 16 µg/mL (≈ 63.3 µM); in experiment [2], greater than 16 µg/mL; with Mycobacterium marinum [4], greater than 16 µg/mL; in the experiment with Mycobacterium gordonae [5], greater than 16 µg/mL; in experiment [6], greater than 16 µg/mL. In addition, the MTD50 in the experiment on Vero [3] stood at 2 µg/mL.
In the case of `O=[N+]([O-])c1c[nH]cc1-c1c(Cl)cccc1Cl`, the MIC (against Mycobacterium avium [1]; in experiment [2]; with Mycobacterium marinum [4]; against Mycobacterium gordonae [5]; in experiment [6]) was greater than 16 µg/mL each time.
As to `NC(=O)c1c[nH]cc1-c1ccc(Cl)cc1Cl`, the minimum inhibitory concentration (MIC) against Mycobacterium avium [1] was 16 µg/mL (≈ 62.7 µM); in experiment [2] it was greater than 16 µg/mL; in the experiment on Mycobacterium marinum [4], greater than 16 µg/mL; with Mycobacterium gordonae [5], greater than 16 µg/mL; in experiment [6] it was greater than 16 µg/mL. Besides, the MTD50 with Vero [3] is 0.125 µg/mL.
With `Cn1cc(-c2ccc(Cl)cc2)c([N+](=O)[O-])c1`, the MIC (in the experiment with Mycobacterium avium [1]; in [2]; against Mycobacterium marinum [4]; in the experiment with Mycobacterium gordonae [5]; in experiment [6]) was greater than 16 µg/mL throughout.
For the molecule `CCOC(=O)c1c[nH]cc1-c1ccc(Cl)cc1`, the MIC with Mycobacterium avium [1] is 4 µg/mL (≈ 16 µM); in experiment [2] it was 16 µg/mL (≈ 64.1 µM); against Mycobacterium marinum [4], greater than 16 µg/mL; in the experiment with Mycobacterium gordonae [5], greater than 16 µg/mL; in experiment [6] it was greater than 16 µg/mL. In the experiment on Vero [3], this molecule came in with an MTD50 of 4 µg/mL.
Take `NC(=O)c1c[nH]cc1-c1ccc(Cl)cc1`: the MIC (against Mycobacterium avium [1]; in experiment [2]; with Mycobacterium marinum [4]; with Mycobacterium gordonae [5]; in [6]) was greater than 16 µg/mL each time. In the experiment on Vero [3], this molecule yielded an MTD50 of 16 µg/mL.
Regarding `Cn1cc(-c2ccccc2Cl)c([N+](=O)[O-])c1`, the MIC (in the experiment with Mycobacterium avium [1]; in experiment [2]; with Mycobacterium marinum [4]; with Mycobacterium gordonae [5]; in experiment [6]) was greater than 16 µg/mL in each case.
Turning to `CN[C@@H]1[C@H](O[C@H]2[C@H](O[C@H]3[C@H](O)[C@@H](O)[C@H](N=C(N)N)[C@@H](O)[C@@H]3N=C(N)N)O[C@@H](C)[C@]2(O)C=O)O[C@@H](CO)[C@H](O)[C@H]1O` [STREPTOMYCIN], the MIC against Mycobacterium avium [1] turned out to be 8 µg/mL (≈ 13.8 µM); in experiment [2], 0.5 µg/mL (≈ 0.86 µM); against Mycobacterium marinum [4], 32 µg/mL (≈ 55 µM); in the experiment on Mycobacterium gordonae [5], 16 µg/mL (≈ 27.5 µM); in experiment [6] it was 8 µg/mL (≈ 13.8 µM). Moreover, the MTD50 in the experiment on Vero [3] was 128 µg/mL.
Regarding `CCOC(=O)c1cn(C)cc1-c1ccc(OC)cc1`, the MTD50 in the experiment with Vero [7] came out at 4 µg/mL. The MIC (with Mycobacterium avium [1]; in the experiment with Mycobacterium marinum [4]; against Mycobacterium gordonae [5]; in [8]; in [6]) was greater than 16 µg/mL each time.
On to `O=[N+]([O-])c1c[nH]cc1-c1ccc(Cl)c(Cl)c1`, for which the MIC in the experiment on Mycobacterium avium [1] was 16 µg/mL (≈ 62.2 µM); in [2], 8 µg/mL (≈ 31.1 µM); against Mycobacterium marinum [4] it was greater than 16 µg/mL; in the experiment with Mycobacterium gordonae [5], greater than 16 µg/mL; in experiment [6], greater than 16 µg/mL. Besides, in the experiment on Vero [3], the MTD50 was found to be 2 µg/mL.
Regarding `OCc1cn(Cc2ccccc2Cl)cc1-c1ccc(Cl)cc1`, the MIC against Mycobacterium avium [1] was greater than 16 µg/mL; in experiment [2] it was 8 µg/mL (≈ 24.1 µM); in the experiment on Mycobacterium marinum [4] it was greater than 16 µg/mL; against Mycobacterium gordonae [5] it was greater than 16 µg/mL; in [6], greater than 16 µg/mL. This molecule had an MTD50 in the experiment on Vero [3] of 15 µg/mL.
Take `O=[N+]([O-])c1c[nH]cc1-c1cccc(Cl)c1Cl`: the MIC is greater than 16 µg/mL against Mycobacterium avium [1]; 16 µg/mL (≈ 62.2 µM) in experiment [2]; greater than 16 µg/mL in the experiment on Mycobacterium marinum [9]; greater than 16 µg/mL in the experiment on Mycobacterium gordonae [5]; greater than 16 µg/mL in experiment [6]. Besides, in the experiment with Vero [3], the MTD50 stood at 1 µg/mL.
As for `CCOC(=O)c1cn(Cc2ccccc2)cc1-c1ccc(OC)cc1`, the MIC with Mycobacterium avium [1] is greater than 16 µg/mL; in [2], 8 µg/mL (≈ 23.9 µM); against Mycobacterium marinum [4], greater than 16 µg/mL; in the experiment with Mycobacterium gordonae [5] it was greater than 16 µg/mL; in experiment [6] it was greater than 16 µg/mL. The MTD50 in the experiment on Vero [3] came to 8 µg/mL.
Regarding `O=[N+]([O-])c1c[nH]cc1-c1cccc(Cl)c1`, the MIC (against Mycobacterium avium [1]; in [2]; against Mycobacterium marinum [4]; against Mycobacterium gordonae [5]; in experiment [6]) was greater than 16 µg/mL in each case.
Turning to `NNC(=O)c1ccncc1` [ISONIAZID], the MIC was 32 µg/mL (≈ 233 µM) with Mycobacterium avium [1]; 0.25 µg/mL (≈ 1.82 µM) in experiment [2]; 16 µg/mL (≈ 117 µM) against Mycobacterium marinum [4]; 32 µg/mL (≈ 233 µM) in the experiment on Mycobacterium gordonae [5]; 64 µg/mL (≈ 467 µM) in [6]. The MTD50 in the experiment with Vero [3] was determined as 32 µg/mL.
On to `O=[N+]([O-])c1c[nH]cc1-c1ccc(Cl)cc1`, for which the MIC (in the experiment with Mycobacterium avium [1]; in experiment [2]; against Mycobacterium marinum [4]; against Mycobacterium gordonae [5]; in experiment [6]) was greater than 16 µg/mL in each case.
For `O=C(O)c1cn(Cc2ccc(Cl)cc2)cc1-c1ccc(Cl)cc1`, the minimal inhibitory concentration (MIC) is 16 µg/mL (≈ 46.2 µM) against Mycobacterium avium [1]; 16 µg/mL (≈ 46.2 µM) in experiment [2]; greater than 16 µg/mL against Mycobacterium marinum [4]; greater than 16 µg/mL with Mycobacterium gordonae [5]; greater than 1 µg/mL in experiment [6]. Besides, the MTD50 with Vero [3] turned out to be 8 µg/mL.
Take `O=[N+]([O-])c1c(Cl)cccc1-c1c[nH]cc1Cl` [PYRROLNITRIN]: the MIC with Mycobacterium avium [10] is 8 µg/mL (≈ 31.1 µM); against Mycobacterium gordonae [11] it was greater than 16 µg/mL; in the experiment with Mycobacterium marinum [4], greater than 16 µg/mL; in experiment [8], 4 µg/mL (≈ 15.6 µM); in [6], 16 µg/mL (≈ 62.2 µM). Also, in the experiment with Vero [3], the MTD50 is 8 µg/mL.
In the case of `Cn1cc(C(=O)O)c(-c2ccc(Cl)cc2)c1`, the MIC was 16 µg/mL (≈ 67.9 µM) against Mycobacterium avium [1]; greater than 16 µg/mL in [2]; greater than 16 µg/mL against Mycobacterium marinum [4]; greater than 16 µg/mL against Mycobacterium gordonae [5]; greater than 16 µg/mL in experiment [6].
In the case of `CCOC(=O)c1cn(C)cc1-c1ccc(Cl)cc1`, the MIC (against Mycobacterium avium [1]; in experiment [2]; in the experiment with Mycobacterium marinum [4]; in the experiment with Mycobacterium gordonae [5]; in [6]) was greater than 16 µg/mL each time.
For the molecule `O=[N+]([O-])c1c[nH]cc1-c1ccc(Cl)cc1Cl`, the MIC against Mycobacterium avium [1] is 16 µg/mL (≈ 62.2 µM); in experiment [2], 1 µg/mL (≈ 3.89 µM); with Mycobacterium marinum [4], greater than 16 µg/mL; in the experiment with Mycobacterium gordonae [5] it was greater than 16 µg/mL; in [6] it was greater than 16 µg/mL. The MTD50 with Vero [3] was determined as 1 µg/mL.
In the case of `O=[N+]([O-])c1c[nH]cc1-c1ccccc1Cl`, the MIC (in the experiment on Mycobacterium avium [1]; in experiment [2]; against Mycobacterium marinum [4]; against Mycobacterium gordonae [5]; in experiment [6]) was greater than 16 µg/mL throughout.
On to `NNC(=O)c1c[nH]cc1-c1ccc(Cl)cc1`, for which the minimal inhibitory concentration (MIC) (with Mycobacterium avium [1]; in experiment [2]; in the experiment on Mycobacterium marinum [4]; against Mycobacterium gordonae [5]; in [6]) was greater than 16 µg/mL in each case. Besides, in the experiment on Vero [3], the MTD50 came to 16 µg/mL.
For `CCOC(=O)c1c[nH]cc1-c1ccc(Cl)cc1Cl`, the MIC (in the experiment with Mycobacterium avium [1]; in experiment [2]; with Mycobacterium marinum [4]; in the experiment with Mycobacterium gordonae [5]; in [6]) was greater than 16 µg/mL in each case. Also, the MTD50 in the experiment on Vero [3] was 2 µg/mL.
As to `CCOC(=O)c1cn(Cc2ccc(F)cc2)cc1-c1ccc(OC)cc1`, the MIC is greater than 16 µg/mL against Mycobacterium avium [1]; 16 µg/mL (≈ 45.3 µM) in experiment [2]; greater than 16 µg/mL with Mycobacterium marinum [4]; greater than 16 µg/mL against Mycobacterium gordonae [5]; greater than 16 µg/mL in experiment [6]. The same molecule yielded an MTD50 in the experiment on Vero [3] of 2 µg/mL.
Consider `COc1ccc(-c2cn(C)cc2[N+](=O)[O-])c(Cl)c1`, for which the MIC (with Mycobacterium avium [1]; in experiment [2]; in the experiment on Mycobacterium marinum [4]; with Mycobacterium gordonae [5]; in experiment [6]) was greater than 16 µg/mL each time. Moreover, the MTD50 in the experiment with Vero [3] came to 2 µg/mL.
